The values that follow are results of earlier work, collected in US5314690A, “Method and composition for treating IgE-mediated allergies” (Northwestern University, priority 1992, dated 1994).

Data set [1] has as its system immune response. The settings on record: reported by Siemion et al.; for Effect on the immune response at low doses: low doses (one dose).
Data set [2] has as its system immune response. The settings on record: reported by Siemion et al.
The mark [3] stands for this setting: listed as N-terminal tetrapeptide.
The mark [4] stands for this setting: listed as C-terminal pentapeptide.

Like-named read-outs stand apart in the source and are kept apart here. Where no end group is shown, it is not given here.

In the case of Gly-Pro-Arg-Pro (GPRP) [SP^1-4, No. 5], in the data set on immune response [1], the “Effect on the immune response at higher doses” value is reported as “slightly stimulated” and the “Effect on the immune response at low doses” value is “only moderately suppressed the immune response”. Moreover, in the data set with immune response [1] (setting [3]), the “Effect on the immune response at higher doses” value is recorded as “stimulatory at a higher dose” and the “Effect on the immune response at low doses” value is given as “suppressive at one dose”.
Turning to “Phe-Phe-Gly-Leu-Met-NH2 (FFGLM-NH2) [SP^7-11, No. 2]”, the figures for the “Effect on the immune response in vitro” value with immune response [2] and with immune response [2] (setting [4]) were “suppressed the immune response in vitro” and “immunosuppressant”, respectively. Also, the “Effect on the immune response in vivo” value in the data set on immune response [1] was “distinct immuno-suppression in vivo”; in the data set on immune response [1] (setting [4]), “immunosuppressant”.
